Experiments:
Assay type in all cases: in vivo, mouse
[1] = system: Ucp1; test: UCP1 immunoblot in inguinal and epididymal white adipose tissues
Experimental: (§1) Normalized UCP1 levels were calculated based on the densitometry analysis of the UCP1 immunoblot and the α-Tubulin immunoblot. The interscapular brown adipose tissue (iBAT) were included as a control. Asterisk denotes the loading of the iBAT lanes on the UCP1 immunoblot was 1/100 of other lanes to avoid overloading. (B) Immunohistochemistry (IHC) of UCP1 protein reveal miR-133 antagonism induced beige adipocytes within inguinal and epididymal white adipose tissues. […] Error bars: S.E.M., asterisk: significant pair-wise comparison by t-test, *: p≦0.05, **: p≦0.01, ***: p≦0.001.
(§2) The following antibodies and dilutions were used: anti-Prdm16 antibody (generated in Dr. Patrick Seale's laboratory), 1:5,000 dilution; anti-Perilipin A antibody (Vala Sciences), 1:5,000 dilution; anti-Ucp1 antibody (Ab10983, Abeam), 1:1,000 dilution (FIGS. 4B, 5A, 7A); anti-Ucp1 antibody (Calbiochem), 1:1,000 dilution (FIG. 8C); anti-Ucp3 antibody (Ab3477, Abeam), 1:1,000 dilution; anti-Pgc1α antibody (Abeam), 1:1,000 dilution; anti-pan myosin heavy chain (MyHC) antibody (Developmental Studies Hybridoma Bank), 1:500; anti-DsRed (tdTomato) antibody (Ablab), 1:500; anti-α-Tubulin antibody (Sigma-Aldrich), 1:10,000 dilution.

[2] = system: Ucp3; test: Immunoblot of Ucp3 in TA muscle after ASO injection; conditions: TA muscles
From the text: (§3) To investigate miR-133 function in brown adipose determination of satellite cells in vivo, Applicant synthesized miR-133 antagomiR (miR-133 antisense oligonucleotide (ASO)) with an antisense sequence to both miR-133a and miR-133b, as well as a control “antagomiR” (control ASO) with the same chemical modifications and not antisense to any mouse gene or EST sequence (see Experimental Procedures). Applicant performed lineage tracing to distinguish effects of miR-133 ASO on satellite cells versus other cell types. Six week old Pax7-CreER; R26R-tdTomato mice were treated with tamoxifin as before (5 consecutive daily injections), then aged to 10 weeks of age prior to initiating the experiment. Control ASO versus miR-133 ASO were injected into tibialis anterior (TA) muscles 3 days following saline injection (quiescent state) or cardiotoxin injection (to induce activation). After one month, RT-qPCR was performed using RNA isolated from several tissues to evaluate the efficacy and scope of miR-133 ASO administration.
To induce brown adipocytes in vivo, 10 mg/mL Cardiotoxin solution (50 μl) was intramuscularly injected into TA muscles of 10-week old Pax7-CreER/R26R-tdTomato mice (FIG. 4) or C57BL/6 mice (FIG. 5 and FIG. 6). Alternatively, frozen injury was performed by applying liquid nitrogen cooled tweezers tips directly onto the anterior sides of TA muscles. […]

[3] = system: Fndc5; test: qRT-PCR of Fndc5 in ASO treated muscles; conditions: both RD and HFD conditions
Experimental: as §1
Total RNA was extracted from cells by TRIzol or Arcturus® PicoPure® RNA Isolation Kit (Applied Biosystems) following manufactures' recommendations. For RT-qPCR of mRNAs, total RNAs were reverse transcribed into cDNAs by SuperScript III (Invitrogen) and a mixture of oligodT18-20 primers and random hexamers. microRNA RT-qPCRs were performed as previously described (Shi and Chiang, 2005).

[4] = system: Ucp1; test: Induction of Ucp1 and brown adipocytes in TA muscle (RT-qPCR, immunoblot, immunofluorescence, IHC)
From the text: as §3
To investigate whether miR-133 ASO was inducing satellite cells to undergo brown adipose determination in vivo, Applicant performed immunofluorescence microscopy on cross-sections prepared from regenerating TA muscles treated with control- or miR-133 ASO (FIG. 4C-D) Staining for Ucp1 and basal lamina-located Laminin confirmed Ucp1 staining only within miR-133 ASO treated regenerating muscles. […] In addition, Applicant observed that these interstitial cells were immunoreactive to Perilipin A, a marker for differentiated adipocytes, and nuclear Prdm16 (FIG. 4D).
To induce brown adipocytes in vivo, 10 mg/mL Cardiotoxin solution (50 μl) was intramuscularly injected into TA muscles of 10-week old Pax7-CreER/R26R-tdTomato mice (FIG. 4) or C57BL/6 mice (FIG. 5 and FIG. 6). Alternatively, frozen injury was performed by applying liquid nitrogen cooled tweezers tips directly onto the anterior sides of TA muscles. After 3 days, 20 μg of miR-133 antagomiR or control antagomiR in saline (50 μl) was intramuscularly injected into the same injured TA muscles (on right hindlimbs). To test efficacy of miR-133 ASO in intact muscles, saline, instead of Cardiotoxin, was injected to TA muscles before miR-133 ASO administration (FIGS. 4A, 4B). miR-133 antagomiR and scramble antagomiR were designed as previously described (Krutzfeldt et al., 2005).
The following antibodies and dilutions were used: anti-MyHC antibody (MF20, Developmental Studies Hybridoma Bank), 1:20 dilution; anti-Prdm16 antibody (generated in Dr. Patrick Seale's laboratory), 1:1,000 dilution; anti-Perilipin A antibody (Vala Sciences), 1:500 dilution; anti-Ucp1 antibody (Calbiochem), 1:200 dilution; anti-Laminin B2 antibody (Upstate), 1:500 dilution.
as §2
Paraffin embedded tissue sections of TA muscles, inguinal white fat depots (igWAT) and epididymal white fat depots (epiWAT) were deparaffinized in CitriSolv. After rehydration, tissue sections were boiled in 0.01M citrate buffer (1.8 mM citric acid, 8.2 mM sodium citrate, pH 6.0) for 16 minutes. Endogenous peroxidase activity was neutralized by 0.3% H2O2 in 70% methanol Anti-Ucp1 antibody (Calbiochem) was 1:200 diluted and incubated with tissues sections overnight. IHC signals were developed by Vectastain ABC kit. […]

[5] = system: epididymal white fat depots and liver; test: H/E staining of fat depots and liver; conditions: mice fed the HFD
From the text: This discrepancy may be related to the abnormally low respiratory exchange ratio (˜0.76) in the control mice fed with HFD (FIG. 7D), which indicates an increased proportion of lipid oxidation in the control mice. […] In addition, miR-133 ASO treatment also led to much improved glucose tolerance in both diet groups (FIGS. 6E & 7F).

[6] = regenerating TA muscle cross-sections

*mA*mUmAmGmCmUmGmGmUmUmGmAmAmGmGmGmGmAmC*mC*mA*mA*mAChl [miR-133 ASO]
effect on UCP1 in white adipose tissues ([1]; C57BL/6 mice fed with a high fat diet (HFD)): not present | UCP1 in inguinal and epididymal white adipose tissues ([1]; C57BL/6 mice fed with a regular diet (RD), CTX): increase | Ucp3 protein by immunoblotting [2]: largely unaffected | expression of Fndc5 compared to control muscles [3]: increased | repression of miR-133a/b and induction of Ucp1 mRNA, duration ([4]; 3 months after a single injection in regenerating muscle): long-lasting effects | Ucp1 protein expression in treated muscles by immunoblotting ([4]; C57BL/6 mice, regular diet or high fat diet, 2 months after treatment): ectopically induced | Ucp1 mRNA within injected regenerating muscle ([4]; cardiotoxin-injured TA muscle, one month): increased | Ucp1 mRNA level in treated TA muscle ([4]; frozen injury induced muscle regeneration): similarly induced | Ucp1 protein by immunoblotting ([4]; regenerated TA muscles, Pax7-CreER, R26R-tdTomato mice): specifically detected | numbers of interstitial cells and ORO-stained cells between regenerating myofibers ([4]; regenerating TA muscle): markedly increased | Prdm16pos cells per cross-section (average) [4, 6]: 31.6 per cross-section | Ucp1pos brown adipocytes per section (average) [4, 6]: 15.6 per section | share of Prdm16pos cells derived from satellite cells ([4]; tdTomato lineage tracing): 76.8% | share of Ucp1pos brown adipocytes derived from satellite cells ([4]; tdTomato lineage tracing): 83.3% | infiltrating inflammatory cells in the epididymal white fat depots [5]: reduced numbers | steatosis of the liver [5]: reduced steatosis

— patent US9018188B2, “MicroRNA inhibitors” (Ottawa Hospital Research Institute, priority 2011, dated 2015)
